# Measured values published in patent publication EP0428000A1, “Fluorogenic substrates for the detection of proteolytic enzyme activity” (priority 1989, dated 1991).
# Where two headings read alike, the source gives them in different places. Numbered stars: 1 amine (or outer) side, 2 acyl side, 3 side chain; on linkers, the order of the positions; unused ones are H or OH. Square brackets hold non-standard residues; d marks the D form. Peptide text beside a SMILES is read from it. * marks the point of attachment. X3 = Nc1c(S(=O)(=O)O)cc2c3c(cc(S(=O)(=O)O)cc13)C(=O)N(CCCCCN*)C2=O; Dabcyl = CN(C)c1ccc(N=Nc2ccc(C(=O)*)cc2)cc1; X2 = CN(C)c1ccc(N=Nc2ccc(S(=O)(=O)*)cc2)cc1; X1 = CN(C)c1ccc(/N=N/c2ccc(C(=O)*)cc2)cc1; EDANS = O=S(=O)(O)c1cccc2c(NCCN*)cccc12; Sta = CC(C)C[C@H](N)[C@@H](O)CC(=O)O; NMeGABA = CN(CCCC(=O)[*:2])[*:1]; Isovaleryl = CC(C)CC(=O)*; GABA = NCCCC(=O)O
# How the values were obtained:
# [1] = pH 4.7, aqueous buffer
# [2] = assay buffer used
# AMV protease [3] = format: biochemical, avian myeloblastosis virus (AMV)
# Experimental: (§1) Rate measurements of the change of the fluorescence intensity over time were also performed for reaction mixtures containing a protease enzyme and a fluorogenic substrate of the present invention.
# physchem = settings: NaOAc buffer, pH 4.7, aqueous buffer
# HIV protease [4] = molecular target: T1, HIV protease (Human immunodeficiency virus type 1 group M subtype B, UniProt P04585); experiment: HIV protease activity towards fluorogenic substrates; format: biochemical, human immunodeficiency virus-1 (HIV-1); parameters: The 11 kd protease enzyme, which is encoded by the human immunodeficiency virus-1 (HIV-1)
# Experimental: as §1
# HIV protease [5] = molecular target: T1, HIV protease; experiment: Fluorescence enhancement of substrate on hydrolysis by HIV protease; format: biochemical, human immunodeficiency virus-1 (HIV-1); parameters: The 11 kd protease enzyme, which is encoded by the human immunodeficiency virus-1 (HIV-1)
# Experimental: Analytical HPLC and the isolation of substrate fragments were performed in accordance with methods well known in the art on a Hewlett Packard 1090M system equipped with diode array absorbance and fluorescence detectors, using either a Brownlee 250 x 4.6 mm C8 silica column at pH values below 5, or a Hamilton 50 x 4.1 mm PRP3 polymer column over a pH range of 2-8. A water to acetonitrile gradient was used; either 0.1% trifluoroacetic acid (pH of about 2), 10 mM sodium acetate (pH 4.9), or 10 mM Tris-HCl (pH 8) was included to vary the pH.
# The detection system permitted the simultaneous acquisition of the chromatograms for fluorescence and several absorbance wavelengths, as well as the absorption spectra for all peaks. The fluorescence (excitation at 340 nm, emission at 490 nm) and 475 nm absorbance signals, which arise respectively from the EDANS and DABCYL groups, were used to monitor and quantitate the fragments produced by proteolysis of the substrate.
# The molar fluorescence enhancement of Substrate I was also estimated by HPLC analysis of HIV protease/Substrate reaction mixtures at times before the hydrolysis reaction was complete. […]
# AMV protease [6] = molecular target: AMV protease (Avian myeloblastosis virus, UniProt P26315); experiment: Fluorogenic assay for inhibition of AMV protease (Substrate II); format: biochemical
# Chain of AMV protease (Avian myeloblastosis virus, UniProt P26315) (P26315 whole entry): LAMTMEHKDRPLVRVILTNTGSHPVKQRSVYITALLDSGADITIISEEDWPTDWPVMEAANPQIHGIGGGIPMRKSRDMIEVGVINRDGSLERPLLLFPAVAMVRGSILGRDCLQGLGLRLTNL
# Experimental: as §1
# HIV protease [7] = molecular target: T1, HIV protease; experiment: Fluorogenic assay for inhibition of HIV protease (Substrate I); settings: Cornish-Bowden plot, parallel lines; pH 4.7, 30°C
# Experimental: Typically, the assay reaction is performed using buffered solutions, and the reaction is allowed to proceed to virtual completion. The hydrolysis of the fluorogenic substrate by the protease enzyme is monitored by steady state fluorescence using a spectrofluorometer. Fluorescence intensity measurements can be acquired continuously and recorded directly by an interfaced microcomputer. The rate of fluorescent substrate hydrolysis can then be computed from a linear regression analysis. In this assay, the rate of hydrolysis of the fluorogenic substrate is directly proportional to the concentration of the protease. By omitting the protease inhibitor compound from the reaction mixture, the rate of change in fluorescent intensity due to the enzyme's activity can be determined. […]
# The assay reaction was carried out in a fluorescence microcell (3 mm), for which a total sample volume of 120 microliters is adequate in most fluorometers. […] Prewarmed substrate solution (20 µL at 30°C) was then added to the microcell, and the fluorescence intensity of the reaction mixture was recorded as a function of time. […] The rate of change of the fluorescence intensity over the subsequent five to eight minutes was determined by linear regression. […] Therefore, the per cent inhibition was calculated as 100 x (1 - (rate in presence of inhibitor)/(rate in absence of inhibitor)).
smiles,measurement,setting,value
CC[C@H](C)[C@H](NC(=O)[C@@H]1CCCN1C(=O)[C@H](Cc1ccc(O)cc1)NC(=O)[C@H](CC(N)=O)NC(=O)[C@H](CCC(N)=O)NC(=O)[C@H](CO)NC(=O)CCCNC(=O)c1ccc(N=Nc2ccc(N(C)C)cc2)cc1)C(=O)N[C@H](C(=O)N[C@@H](CCC(N)=O)C(=O)NCCCCCN1C(=O)c2cc(S(=O)(=O)O)cc3c(N)c(S(=O)(=O)O)cc(c23)C1=O)C(C)C ({Dabcyl-GABA}-SQNYPIVQ-X3),solubility,[1],≥ 350 µM
CC[C@H](C)[C@H](NC(=O)[C@H](CCC(N)=O)NC(=O)[C@@H]1CCCN1C(=O)[C@H](Cc1ccccc1)NC(=O)[C@H](CC(N)=O)NC(=O)[C@H](Cc1ccccc1)NC(=O)[C@H](CO)NC(=O)[C@@H](NC(=O)CCCN(C)S(=O)(=O)c1ccc(N=Nc2ccc(N(C)C)cc2)cc1)C(C)C)C(=O)N[C@H](C(=O)N[C@@H](CC(C)C)C(=O)NCCNc1cccc2c(S(=O)(=O)O)cccc12)[C@@H](C)O [Substrate III] (X2-[NMeGABA]VSFNFPQITL-{EDANS}),solubility (in words),[2],poor solubility
CC(C)[C@H](NC(=O)[C@H](CO)NC(=O)CCCNC(=O)c1ccc(/N=N/c2ccc(N(C)C)cc2)cc1)C(=O)N[C@H](C(=O)N[C@@H](Cc1ccc(O)cc1)C(=O)N1CCC[C@H]1C(=O)N[C@H](C(=O)N[C@H](C(=O)N[C@@H](CCC(N)=O)C(=O)NCCNc1cccc2c(S(=O)(=O)O)cccc12)C(C)C)C(C)C)C(C)C [Substrate II] ({X1-GABA}-SVVYPVVQ-{EDANS}),AMV protease activity against Substrate II relative to Substrate I,AMV protease [3],at least 50 fold
same,cleavage by AMV protease (in words),AMV protease [3],efficient substrate
CC[C@H](C)[C@H](NC(=O)[C@H](CCSC)NC(=O)[C@H](Cc1ccc(O)cc1)NC(=O)[C@H](CC(N)=O)NC(=O)[C@H](CCC(N)=O)NC(=O)[C@H](CO)NC(=O)CCCN(C)S(=O)(=O)c1ccc(N=Nc2ccc(N(C)C)cc2)cc1)C(=O)N[C@H](C(=O)N[C@@H](CCC(N)=O)C(=O)NCCNc1cccc2c(S(=O)(=O)O)cccc12)C(C)C [Substrate IV] (X2-[NMeGABA]SQNYMIVQ-{EDANS}),solubility (in words),[2],poor solubility
CC[C@H](C)[C@H](NC(=O)[C@@H]1CCCN1C(=O)[C@H](Cc1ccc(O)cc1)NC(=O)[C@H](CC(N)=O)NC(=O)[C@H](CCC(N)=O)NC(=O)[C@H](CO)NC(=O)CCCNC(=O)c1ccc(/N=N/c2ccc(N(C)C)cc2)cc1)C(=O)N[C@H](C(=O)N[C@@H](CCC(N)=O)C(=O)NCCNc1cccc2c(S(=O)(=O)O)cccc12)C(C)C [Substrate I] ({X1-GABA}-SQNYPIVQ-{EDANS}),cleavage by AMV protease (in words),AMV protease [3],not by AMV protease
same,solubility,physchem,~150 µM
same,cleavage by HIV protease (in words),HIV protease [4],cleaved quite efficiently
same,maximum velocity for the enzymatic reaction (Vmax),HIV protease [4]; HIV protease,47 nM/min
same,Km,HIV protease [4]; HIV protease; read-out: Michaelis-Menten kinetics constant (Km),103 µM
same,"rate of cleavage by HIV protease, Substrate I relative to Substrate II",HIV protease [4]; each substrate 3.4 µM,ten times faster
same,enhancement of the fluorescence quantum yield of the Pro-Ile-Val-Gln-EDANS fragment over the parent substrate,"HIV protease [5]; HPLC analysis, pH 4.9, acetonitrile-water",33 fold
same,fluorescence enhancement on cleavage,HIV protease [5]; under assay conditions,40 fold
CC[C@H](C)[C@H](NC(=O)[C@@H](NC(=O)[C@H](C)NC(=O)[C@@H](NC(=O)CCCNC(=O)c1ccc(/N=N/c2ccc(N(C)C)cc2)cc1)[C@@H](C)O)[C@@H](C)O)C(=O)N[C@@H](CCSC)C(=O)N[C@@H](CCSC)C(=O)N[C@@H](CCC(N)=O)C(=O)N[C@@H](CCCNC(=N)N)C(=O)NCC(=O)N[C@@H](CCC(=O)O)C(=O)NCCNc1cccc2c(S(=O)(=O)O)cccc12 [Substrate VII] ({X1-GABA}-TATIMMQRGE-{EDANS}),cleavage by HIV protease (in words),HIV protease [4],more efficient substrate
same,maximum velocity for the enzymatic reaction (Vmax),HIV protease [4]; HIV protease,1.8 nM/min
same,Km,HIV protease [4]; read-out: Michaelis-Menten kinetics constant (Km); HIV protease,5.9 µM
CC[C@H](C)[C@H](NC(=O)[C@@H]1CCCN1C(=O)[C@H](Cc1ccccc1)NC(=O)[C@H](CC(N)=O)NC(=O)[C@H](CC(C)C)NC(=O)[C@@H](NC(=O)[C@H](C)NC(=O)CCCNC(=O)c1ccc(/N=N/c2ccc(N(C)C)cc2)cc1)[C@@H](C)O)C(=O)N[C@@H](CO)C(=O)N[C@@H](CCC(N)=O)C(=O)N[C@@H](CCC(=O)O)C(=O)NCCNc1cccc2c(S(=O)(=O)O)cccc12 [Substrate VI] ({X1-GABA}-ATLNFPISQE-{EDANS}),cleavage by HIV protease (in words),HIV protease [4],not as efficiently as was Substrate I
CC[C@H](C)[C@H](NC(=O)CCCNC(=O)c1ccc(/N=N/c2ccc(N(C)C)cc2)cc1)C(=O)N[C@@H](CCCNC(=N)N)C(=O)N[C@@H](CCC(N)=O)C(=O)N[C@@H](C)C(=O)N[C@@H](CC(N)=O)C(=O)N[C@@H](Cc1ccccc1)C(=O)N[C@@H](CC(C)C)C(=O)NCC(=O)N[C@@H](CC(C)C)C(=O)NCCNc1cccc2c(S(=O)(=O)O)cccc12 [Substrate V] ({X1-GABA}-IRQANFLGL-{EDANS}),cleavage by HIV protease (in words),HIV protease [4],not as efficiently as was Substrate I
CC(C)CC(=O)N[C@H](C(=O)N[C@H](C(=O)N[C@@H](CC(C)C)[C@@H](O)CC(=O)N[C@@H](C)C(=O)N[C@@H](CC(C)C)[C@@H](O)CC(=O)O)C(C)C)C(C)C [pepstatin] (Isovaleryl-VV[Sta]A[Sta]-OH),IC50,AMV protease [6],~40 µM
same,mode of inhibition of the protease,HIV protease [7],purely competitive
